Experimental data published in patent US9073929B2, “Aldosterone synthase inhibitors” (ElexoPharm GmbH, priority 2011, dated 2015).

Columns and labels:
human CYP11B1 = molecular target: T1, human CYP11B1 (Homo sapiens, UniProt P15538); assay: V79-Human-CYP11B1 cell assay (cortisol HTRF); type: cell-based; details: V79-hCYP11B1 cells, 250 nM 11-deoxycortisol, 3 hours
T1 construct: expressed in transfected cells; host or cells: V79MZh11B1 cells
T1 sequence (P15538 25-503): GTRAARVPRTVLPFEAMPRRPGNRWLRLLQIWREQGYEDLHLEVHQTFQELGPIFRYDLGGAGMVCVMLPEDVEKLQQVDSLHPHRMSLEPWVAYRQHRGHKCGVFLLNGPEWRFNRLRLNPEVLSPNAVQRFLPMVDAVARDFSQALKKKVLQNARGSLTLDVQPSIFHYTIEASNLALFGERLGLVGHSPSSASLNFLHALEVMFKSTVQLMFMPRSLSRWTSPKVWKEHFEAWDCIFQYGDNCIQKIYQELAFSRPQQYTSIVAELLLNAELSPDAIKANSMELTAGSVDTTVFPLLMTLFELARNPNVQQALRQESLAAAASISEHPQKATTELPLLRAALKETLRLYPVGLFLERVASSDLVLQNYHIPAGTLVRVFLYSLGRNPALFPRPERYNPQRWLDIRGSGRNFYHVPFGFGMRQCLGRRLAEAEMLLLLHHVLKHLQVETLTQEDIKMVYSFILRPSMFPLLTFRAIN
Description: Methods for V79-Human-CYP11B2 and V79-Human-CYP11B1 Assays: V79 cell lines stably expressing the either the human CYP11B2 or the human CYP11B1 enzyme were generated using a standard transfection protocol. V79 cells were transfected with plasmids pTriEx3-Hygro-hCyp11B2 or pTriEx3-Hygro-hCyp11B1 using Lipofectamine2000 reagent. […] Single cell clones were generated by infinite dilution in DMEM supplemented with 10% FBS and 400 μg/mL hygromycin until single colonies were obtained. […] For testing of inhibitors, cells were harvested at 80% confluency with 0.5% Trypsan-EDTA, washed once in PBS, and reconstituted in DMEM+0.1% BSA media at a cell concentration of 400,000 cells/mL. 25 μl of cells were added to a 384 well tissue culture treated plate and mixed with 0.25 μl of inhibitor or DMSO (1% final DMSO concentration) for 1 hour at 37° C., 5% CO2. […] The reaction was carried out for 3 hours at 37° C., 5% CO2 and was stopped by harvesting the supernatants. […] IC50's for the inhibitor were determined by plotting the amount of product formed against the concentration of inhibitor using sigmoidal dose-response curve (variable slope) fit in GraphPad.

human CYP11B2 = molecular target: T2, human CYP11B2 (Homo sapiens, UniProt P19099); assay: V79-Human-CYP11B2 cell assay (aldosterone HTRF); type: cell-based; details: V79-hCYP11B2 cells, 125 nM 11-deoxycorticosterone, 3 hours
T2 construct: expressed in transfected cells; host or cells: V79 cells (clone V79-hCYP11B2-CLE9)
T2 sequence (P19099 25-503): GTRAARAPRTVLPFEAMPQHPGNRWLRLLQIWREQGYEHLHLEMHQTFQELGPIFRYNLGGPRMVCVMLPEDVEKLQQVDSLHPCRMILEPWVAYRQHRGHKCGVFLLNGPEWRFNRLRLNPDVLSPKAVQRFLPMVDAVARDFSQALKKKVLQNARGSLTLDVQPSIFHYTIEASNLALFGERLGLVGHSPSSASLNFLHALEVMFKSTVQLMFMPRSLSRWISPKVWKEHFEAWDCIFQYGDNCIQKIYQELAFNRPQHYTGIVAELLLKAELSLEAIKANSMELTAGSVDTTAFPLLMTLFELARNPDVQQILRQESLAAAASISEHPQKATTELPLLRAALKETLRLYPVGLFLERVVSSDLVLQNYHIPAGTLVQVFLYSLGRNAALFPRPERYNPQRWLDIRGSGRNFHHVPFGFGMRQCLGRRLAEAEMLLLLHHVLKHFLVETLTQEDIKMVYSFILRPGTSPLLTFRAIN
Description: Methods for V79-Human-CYP11B2 and V79-Human-CYP11B1 Assays:
V79 cell lines stably expressing the either the human CYP11B2 or the human CYP11B1 enzyme were generated using a standard transfection protocol. V79 cells were transfected with plasmids pTriEx3-Hygro-hCyp11B2 or pTriEx3-Hygro-hCyp11B1 using Lipofectamine2000 reagent. V79 cells that stably express the human CYP11B2 or human CYP11B1 enzyme were selected for and maintained in DMEM supplemented with 10% FBS and 400 μg/mL hygromycin for ˜2 weeks. Single cell clones were generated by infinite dilution in DMEM supplemented with 10% FBS and 400 μg/mL hygromycin until single colonies were obtained. Clones V79-hCYP11B2-CLE9 and V79-hCYP11B1-8C7, were determined to produce the most aldosterone and cortisol, respectively, and were selected for inhibitor screening. […] The amount of product in the supernatant (aldosterone for CYP11B2 assay and cortisol for the CYP11B1 assay) was measured using HTRF-based assay kit (Aldosterone HTRF-CisBio#64ALDPEB, Cortisol HTRF-CisBio #631DC002-CORT). IC50's for the inhibitor were determined by plotting the amount of product formed against the concentration of inhibitor using sigmoidal dose-response curve (variable slope) fit in GraphPad.

Row | Structure (SMILES) | IC50 (human CYP11B1) [nM] | IC50 (human CYP11B2) [nM]
1 | Cc1c(-c2cc(Cl)c3c(c2)CCc2nnc(C)n2-3)cncc1C(C)(O)C(F)(F)F (centres unmarked) [Example 37, 1-(5-(9-chloro-1-methyl-4,5-dihydro-[1,2,4]triazolo[4,3-a]quinolin-7-yl)-4-methylpyridin-3-yl)-1,1,1-trifluoropropan-2-ol] | 69 | 
2 | COC(=O)C1(c2cncc(-c3ccc4c(c3)CCc3nncn3-4)c2)CC1 [Step D, p 76, methyl 1-[5-(4,5-dihydro[1,2,4]triazolo[4,3-a]quinolin-7-yl)-3-pyridinyl]cyclopropanecarboxylate] | 157 | 17
3 | Cc1c(F)cncc1-c1cc(F)c2c(c1)CCc1nncn1-2 [Example 17, 9-fluoro-7-(5-fluoro-4-methylpyridin-3-yl)-4,5-dihydro-[1,2,4]triazolo[4,3a] quinoline] | 1500 | 
4 | Cc1c(-c2cc(Cl)c3c(c2)CCc2nnc(C)n2-3)cncc1C(C)(O)C(F)(F)F (centres unmarked) [Example 38, 1-(5-(9-chloro-1-methyl-4,5-dihydro-[1,2,4]triazolo[4,3-a]quinolin-7-yl)-4-methylpyridin-3-yl)-1,1,1-trifluoropropan-2-ol] | 527 | 
